From patent publication US20070219214A1, “Dual NK2/NK3-antagonists, pharmaceutical compositions comprising them, and processes for their preparation” (Solvay pharmaceuticals GmbH, priority 2006, published 2007)
Read-outs that look alike come from different tables or passages of the source.

Assays:
human NK2-receptor [1] = molecular target: T1, human NK2-receptor (Homo sapiens, UniProt P21452); experiment: Functional cellular test, Ca2+ measurements using FLIPR for NK2 activity;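 also: CHO cells stably expressing the human receptor, loaded with a calcium dye, antagonist inhibition of ligand-evoked intracellular calcium rise read as peak fluorescence change on FLIPR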
T1 sequence (P21452 1-398): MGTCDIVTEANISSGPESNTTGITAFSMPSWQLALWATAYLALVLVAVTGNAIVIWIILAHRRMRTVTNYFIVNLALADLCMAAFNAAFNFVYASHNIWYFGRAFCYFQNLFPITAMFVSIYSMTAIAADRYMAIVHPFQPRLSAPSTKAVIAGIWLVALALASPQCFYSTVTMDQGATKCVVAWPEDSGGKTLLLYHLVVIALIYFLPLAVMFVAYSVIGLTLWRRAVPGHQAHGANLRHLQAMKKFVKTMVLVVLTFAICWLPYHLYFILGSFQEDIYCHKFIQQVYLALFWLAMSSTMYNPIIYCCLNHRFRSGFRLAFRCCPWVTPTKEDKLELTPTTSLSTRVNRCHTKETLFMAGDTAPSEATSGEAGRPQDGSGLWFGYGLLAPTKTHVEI

human NK2-receptor [2] = molecular target: T1, human NK2-receptor; experiment: Binding potency of the test substances to NK2-receptors in vitro ([3H]-SR 48968 displacement); design: expressed in transfected cells; host or cells: CHO cells (membrane preparation); conditions: human NK2-receptor in CHO cell membranes, [3H]-SR 48968 (saredutant); average of at least three measurements; read-out: pKi, binding potency to NK2-receptors (converted)
Source text: 2. Determination of the Binding Potency of the Test Substances to NK2-Receptors in Vitro
The affinity of test compounds for NK2-receptors can be determined by measuring the ability of the test compound to displace a radiolabeled ligand from its specific binding site.
(§1) The radiolabel used in this assay is [^3H]-SR 48968 (saredutant). Receptors were obtained from membrane preparations of CHO-cells (Chinese Hamster Ovary cells), in which the human NK2-receptor was stably expressed. Membranes were incubated with [^3H]-saredutant in the absence or presence of test compounds at different concentrations, diluted in a buffer system. Separation of bound radioactivity from free radioactivity was done by filtration through glass fiber filters (Packard GF/B) with several washings with ice-cold buffer solution. Bound radioactivity was measured with a liquid scintillation counter (total binding). Unspecific binding was determined by incubation with an excess (0.1 μmol/l) of unlabeled saredutant. Specific binding is obtained by subtracting the unspecific binding from the total binding.
(§2) Radioactivity of the specific binding was plotted against the concentration of the test compound and IC50 values, i.e. the concentration of test compound by which 50% of the radioligand is displaced, were calculated. The inhibition constant (Ki) was calculated according to the Cheng-Prusoff equation, and listed as its negative logarithmic value (pKi). The pKi value describes the potency of a test compound to bind to a receptor.
(§3) The average result of all measurements is listed above.

human NK1-receptor [3] = molecular target: T2, human NK1-receptor (Homo sapiens, UniProt P25103); experiment: Functional cellular test, Ca2+ measurements using FLIPR for NK1 activity; type: cell-based; design: expressed in transfected cells; host or cells: CHO fibroblast cells
T2 sequence (P25103 whole entry): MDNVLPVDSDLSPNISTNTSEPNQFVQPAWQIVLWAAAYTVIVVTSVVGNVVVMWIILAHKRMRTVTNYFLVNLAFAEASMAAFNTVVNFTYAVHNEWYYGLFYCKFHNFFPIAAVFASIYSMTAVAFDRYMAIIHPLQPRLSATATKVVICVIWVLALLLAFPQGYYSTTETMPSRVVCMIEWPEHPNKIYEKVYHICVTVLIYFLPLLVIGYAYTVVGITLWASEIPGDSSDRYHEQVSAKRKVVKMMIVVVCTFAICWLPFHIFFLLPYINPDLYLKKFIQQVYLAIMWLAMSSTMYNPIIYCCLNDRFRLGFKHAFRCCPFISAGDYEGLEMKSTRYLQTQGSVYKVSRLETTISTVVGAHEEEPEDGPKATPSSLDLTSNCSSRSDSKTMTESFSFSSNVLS
Source text: The NK receptor is coupled to Gq.
All steps were done under sterile conditions.

human NK1-receptor [4] = molecular target: T2, human NK1-receptor; experiment: Binding potency of the test substances to NK1-receptors in vitro ([3H]-Substance P displacement); conditions: human NK1-receptor in CHO cell membranes, average of at least three measurements
Description: 1. Determination of the Binding Potency of the Test Substances to NK1-Receptors in Vitro
The affinity of test compounds for NK1-receptors can be determined by measuring the ability of the test compound to displace a radiolabeled ligand from its specific binding site. The tests were performed at Solvay Pharmaceuticals, Weesp, The Netherlands.
Separation of bound radioactivity from free radioactivity was done by filtration through glass fiber filters (Packard GF/B) with several washings with ice-cold buffer solution. Bound radioactivity was measured with a liquid scintillation counter (total binding).
The inhibition constant (Ki) was calculated according to the Cheng-Prusoff equation, and listed as its negative logarithmic value (pKi). The pKi value describes the potency of a test compound to bind to a receptor.

human NK3 receptor [5] = molecular target: T3, human NK3 receptor (Homo sapiens, UniProt P29371); experiment: Binding potency of the test substances to NK3-receptors in vitro ([3H]-SR 142801 displacement); design: expressed in transfected cells; host or cells: CHO cells (membrane preparation); conditions: human NK3-receptor in CHO cell membranes, [3H]-SR 142801 (osanetant); average of at least three measurements; read-out: pKi, binding potency to NK3-receptors (converted)
T3 sequence (P29371 1-465): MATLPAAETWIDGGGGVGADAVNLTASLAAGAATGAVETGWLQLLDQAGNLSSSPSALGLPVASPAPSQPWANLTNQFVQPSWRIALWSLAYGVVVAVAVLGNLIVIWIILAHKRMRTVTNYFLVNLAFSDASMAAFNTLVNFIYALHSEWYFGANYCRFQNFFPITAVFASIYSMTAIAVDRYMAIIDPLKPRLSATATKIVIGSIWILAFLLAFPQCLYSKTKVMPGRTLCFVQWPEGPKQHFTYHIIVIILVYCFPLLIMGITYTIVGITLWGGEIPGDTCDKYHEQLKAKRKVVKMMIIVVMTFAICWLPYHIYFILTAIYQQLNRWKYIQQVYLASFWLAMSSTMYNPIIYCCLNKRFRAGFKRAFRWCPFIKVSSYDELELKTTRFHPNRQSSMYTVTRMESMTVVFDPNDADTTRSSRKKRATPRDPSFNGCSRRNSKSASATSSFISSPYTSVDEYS
Source text: 3. Determination of the Binding Potency of the Test Substances to NK3-Receptors in Vitro
The affinity of test compounds for NK3-receptors can be determined by measuring the ability of the test compound to displace a radiolabeled ligand from its specific binding site.
as §1, with “142801 (osanetant).” for “48968 (saredutant).”, “NK3-receptor” for “NK2-receptor”, “[^3H]-osanetant” for “[^3H]-saredutant”, “(1” for “(0.1”, “osanetant.” for “saredutant.”
as §2, with “(pKi)” for “(pKi).”
as §3

human NK3 receptor [6] = molecular target: T3, human NK3 receptor; experiment: Functional cellular test, Ca2+ measurements using aequorin for NK3 activity; type: cell-based; design: expressed in transfected cells; host or cells: cell line co-expressing mitochondrially targeted apoaequorin (CHO according to b76/b77); conditions: read-out: pA2 data for NK3 (converted)
[7] = read-out: pA2 data for NK1 (converted)
[8] = read-out: pKi, binding potency to NK1-receptors (converted)
[9] = pKi, binding potency to NK1-receptors

Row | SMILES | Kb (human NK2-receptor [1]) | Ki (human NK2-receptor [2]) | Kb (human NK1-receptor [3]; [7]) | Ki (human NK1-receptor [4]; [8]) | Ki (human NK3 receptor [5]) | Ki (human NK1-receptor [4]; [9]) | Kb (human NK3 receptor [6]) | Kb (human NK1-receptor [3])
1 | CN(C)C(=O)C1(N2CCN(CC[C@H](CN(C)C(=O)c3ccccc3)c3ccc(Cl)c(Cl)c3)CC2)CCCCC1 [compound 96, N-[(2S)-2-(3,4-dichlorophenyl)-4-(4-{1-[(dimethylamino)-carbonyl]cyclohexyl}piperazin-1-yl)butyl]-N-methylbenzamide] | 1.26 nM | 2 nM | 31.6 nM |  |  |  |  | 
2 | CNC(=O)C1(N2CCCCC2)CCN(CCC(CN(C)C(=O)c2cc(C#N)cc3ccccc23)c2ccc(Cl)c(Cl)c2)CC1 (centres unmarked) [compound 93] | 3.98 nM | 15.8 nM | 7.94 nM | 7.94 nM |  |  |  | 
3 | CN(C)C(=O)C1(N2CCCCC2)CCN(CCC(CN(C)C(=O)c2cccc(Cl)c2)c2ccc(Cl)c(Cl)c2)CC1 (centres unmarked) [compound 80] |  | 2 nM |  | 79.4 nM | 79.4 nM |  |  | 
4 | CN(C)C(=O)C1(N(C)C)CCN(CCC(CN(C)C(=O)c2ccccc2)c2ccc(Cl)c(Cl)c2)CC1 (centres unmarked) [compound 127] |  | 2 nM |  | 79.4 nM |  |  |  | 
5 | CN(CC(CCN1CCC(C(=O)N2CCCCC2)(N2CCCCC2)CC1)c1ccc(Cl)c(Cl)c1)C(=O)c1cc(C#N)cc2ccccc12 (centres unmarked) [compound 125] |  | 50.1 nM |  | 12.6 nM | 50.1 nM |  |  | 
6 | CN(C)C(=O)C1(N2CCCCC2)CCN(CCC(CN(C)C(=O)c2cccc(C(F)(F)F)c2)c2ccc(Cl)c(Cl)c2)CC1 (centres unmarked) [compound 83] | 15.8 nM | 5.01 nM |  |  | 3.16 nM | 79.4 nM |  | 
7 | CN(C[C@@H](CCN1CCC(C(=O)N2CCCCC2)(N2CCCCC2)CC1)c1ccc(Cl)c(Cl)c1)C(=O)c1ccccc1 [compound 104, N-{(2S)-2-(3,4-dichlorophenyl)-4-[4′-(piperidin-1-ylcarbonyl)-1,4′-bipiperidin-1′-yl]butyl}-N-methylbenzamide] | 15.8 nM | 2 nM | 20 nM |  | 20 nM |  | 15.8 nM | 
8 | CN(C)C(=O)C1(N2CCCC2)CCN(CC[C@H](CN(C)C(=O)c2ccccc2)c2ccc(Cl)c(Cl)c2)CC1 [compound 99, 1-[(3S)-4-[benzoyl(methyl)amino]-3-(3,4-dichlorophenyl)-butyl]-N,N-dimethyl-4-pyrrolidin-1-ylpiperidine-4-carboxamide] | 0.251 nM | 0.631 nM | 50.1 nM |  | 63.1 nM |  |  | 
9 | CN(C)C(=O)C1(N2CCCCC2)CCN(CCC(CN(C)C(=O)C2CCCC2)c2ccc(Cl)c(Cl)c2)CC1 (centres unmarked) [compound 23] | 1.26 nM | 2 nM | 1.26 nM |  | 10 nM |  | 12.6 nM | 
10 | CCCCN(C(=O)CC)C1CCN(CC[C@H](CN(C)C(=O)c2ccccc2)c2ccc(Cl)c(Cl)c2)CC1 [compound 108, N-[(2S)-4-{4-[butyl(propionyl)amino]piperidin-1-yl}-2-(3,4-dichlorophenyl)butyl]-N-methylbenzamide] | 1 nM | 3.98 nM |  |  |  | 12.6 nM |  | 31.6 nM
11 | COc1cccc(C(=O)N(C)CC(CCN2CCC(C(=O)N(C)C)(N3CCCCC3)CC2)c2ccc(Cl)c(Cl)c2)c1 (centres unmarked) [compound 82] |  | 2.51 nM |  | 79.4 nM | 25.1 nM |  |  | 
12 | CN(C)C(=O)C1(N2CCCCC2)CCN(CCC(CN(C)C(=O)Cc2ccc(C(F)(F)F)c(C(F)(F)F)c2)c2ccc(Cl)c(Cl)c2)CC1 (centres unmarked) [compound 56] |  | 25.1 nM |  | 63.1 nM | 5.01 nM |  |  | 
13 | CN(C)C(=O)C1(N2CCCCC2)CCN(CCC(CN(C)C(=O)c2cc(C(F)(F)F)cc(C(F)(F)F)c2)c2ccc(Cl)c(Cl)c2)CC1 (centres unmarked) [compound 70] |  | 25.1 nM |  | 63.1 nM | 63.1 nM |  |  | 
14 | CNc1ccccc1C(=O)N(C)CC(CCN1CCC(C(=O)N(C)C)(N2CCCCC2)CC1)c1ccc(Cl)c(Cl)c1 (centres unmarked) [compound 24] |  | 5.01 nM |  | 79.4 nM |  |  |  | 
15 | CCC(=O)N(C1CCCCC1)C1CCN(CC[C@H](CN(C)C(=O)c2ccccc2)c2ccc(Cl)c(Cl)c2)CC1 [compound 116, N-[(2S)-4-{4-[cyclohexyl(propionyl)amino]piperidin-1-yl}-2-(3,4-dichlorophenyl)butyl]-N-methyl-benzamide] | 1.26 nM | 5.01 nM |  |  |  | 79.4 nM |  | 31.6 nM
16 | CN(C)C(=O)C1(N2CCCC2)CCN(CCC(CN(C)C(=O)c2cc(C#N)cc3ccccc23)c2ccc(Cl)c(Cl)c2)CC1 (centres unmarked) [compound 98] | 0.501 nM | 5.01 nM | 1.58 nM | 5.01 nM | 63.1 nM |  |  | 
17 | CN(CC(CCN1CCC(C(=O)N2CCCC2)(N2CCCCC2)CC1)c1ccc(Cl)c(Cl)c1)C(=O)c1cc(C#N)cc2ccccc12 (centres unmarked) [compound 126] |  | 10 nM |  | 6.31 nM | 39.8 nM |  |  | 
18 | CN(C)C(=O)C1(N2CCCCC2)CCN(CCC(CN(C)C(=O)c2ccccn2)c2ccc(Cl)c(Cl)c2)CC1 (centres unmarked) [compound 43] | 0.631 nM | 0.251 nM |  |  | 5.01 nM |  | 31.6 nM | 
19 | CN(C)C(=O)C1(N2CCCCC2)CCN(CCC(CN(C)C(=O)c2cccs2)c2ccc(Cl)c(Cl)c2)CC1 (centres unmarked) [compound 37] | 1.58 nM | 1.58 nM |  |  | 20 nM |  | 31.6 nM | 
